This is an account of results in US8877801B2, “Compounds and compositions as selective estrogen receptor degraders” (Novartis AG, priority 2013, dated 2014).

The target in one experiment is T1, ER (Homo sapiens, UniProt P03372).
T1 construct: transfected in MCF7 cells (containing endogenous ER); endogenous in cells; host or cells: MCF7 cells
T1 sequence (P03372 1-595): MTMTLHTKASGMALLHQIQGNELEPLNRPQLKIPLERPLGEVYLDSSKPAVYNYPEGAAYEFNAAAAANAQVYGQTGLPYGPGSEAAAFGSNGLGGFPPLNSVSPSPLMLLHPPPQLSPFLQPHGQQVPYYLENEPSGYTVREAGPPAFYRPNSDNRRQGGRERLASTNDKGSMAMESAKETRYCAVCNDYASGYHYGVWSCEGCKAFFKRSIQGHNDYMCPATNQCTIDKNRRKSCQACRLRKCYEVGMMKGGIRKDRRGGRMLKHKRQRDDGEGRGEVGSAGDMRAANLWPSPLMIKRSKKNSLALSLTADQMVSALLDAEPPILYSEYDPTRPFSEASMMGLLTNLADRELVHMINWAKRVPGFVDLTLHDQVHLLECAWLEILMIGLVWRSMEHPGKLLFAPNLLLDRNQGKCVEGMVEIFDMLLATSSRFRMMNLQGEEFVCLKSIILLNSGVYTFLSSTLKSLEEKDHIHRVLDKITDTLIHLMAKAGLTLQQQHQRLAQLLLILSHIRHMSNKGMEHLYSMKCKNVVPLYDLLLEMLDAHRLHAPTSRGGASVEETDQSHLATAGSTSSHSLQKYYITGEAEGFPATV
The experiment in a line: ER transcription assay (MCF7 cells), ERE-luciferase reporter. Format: cell-based. An excerpt:
ER Transcription Assay (MCF7 Cells)
The ER transcription assay is a reporter assay that is based on the ability of ER to induce transcription from a luciferase reporter gene containing estrogen response elements (EREs) in the promoter/enhancer region. When the reporter gene is transfected in MCF7 cells (containing endogenous ER), transcription is reflected by the level of luciferase expression.
A day before transfection, cells are split into a T75 flask at a cell density of 300,000 cells/mL (10 mL total) and allowed to attach overnight in a humidified CO2 incubator at 37° C.
Approximately 20 ug DNA is mixed in OptiMEM (Invitrogen) to a total volume of 650 μL. Following incubation, the OptiMEM-DNA mixture is added to the OptiMEM-Lipofectin mix and incubated for 15 minutes at 37° C. The DNA-Lipofectin mixture is then added directly to the T75 flask and the flask is returned to the incubator.
After overnight incubation, compound is added to individual wells of a 96-well plate in a 10 μL volume of media at 10× concentration along with 17β estradiol whose final concentration is 0.1 nM. Normally, DMSO (used as a vehicle) is included to achieve a final concentration of 0.1% when added to the cells. Transfected cells are trypsinized, resuspended in DMEM/F12/10% charcoal-stripped serum and added to the 96-well plate at 25,000 cells/well in 90 μL of media. The plate is then returned to the incubator for 24 hours.
After incubation with compounds for 24 hours, Firefly and Renilla luciferase activities are measured to determine ER transcriptional activity. Media is removed from 96-well plates by decanting and blotting on paper towels.
One second total read time after a one second delay.
One second total read time after one second delay. If Firefly luciferase signal is high, Renilla assay must be done an hour after the Firefly assay due to incomplete squelching of Firefly signal.
(§1) The data describing the antagonist and degradation properties for the examples is compiled in table 10. The column titled MCF7 IC50 reports the inflection point of the inhibition of transcription in MCF7 cells as described above. Percentage ERα remaining reports the remaining ERα protein measured at 10 μM concentration of the ligand as described above. The column ERα IC50 reports the inflection point of the degradation in response to the ligand concentration.
In general terms: A reporter such as luciferase makes a cellular process visible.

The next experiment concerns the target T2, ERα (Homo sapiens, UniProt P03372).
T2 construct: transfected in MCF7 cells (containing endogenous ER); endogenous in cells; host or cells: MCF7 cells
T2 sequence (P03372 1-595): T1 sequence (P03372 1-595)
Briefly: ERα degradation (MCF7 cells), in-cell Western. Format: cell-based. The note with it: for % ERα remaining: 10 μM concentration of the ligand, MCF7 cells, 18-24 hours, relative to DMSO control. Here is the method: ERα Degradation (MCF7 Cells)
as §1

Setting [1] is: MCF7 cells, ER reporter gene, 0.1 nM 17β estradiol, 24 hours, read-out: MCF7 IC50 (inflection point of the inhibition of transcription in MCF7 cells).

As a reminder, the IC50 is the concentration that inhibits the measured activity by half.

Like-named read-outs stand apart in the source and are kept apart here.

With `O=C(O)/C=C/c1ccc(Oc2c(-c3ccc(O)cc3)sc3cc(O)ccc23)cc1` [Example 2, (E)-3-(4-((6-hydroxy-2-(4-hydroxyphenyl)benzo[b]thiophen-3-yl)oxy)phenyl)acrylic acid], the IC50 on ER (setting [1]) worked out at 748 nM; on ER (comparison of bond order between the phenyl and -C(O)OH, read-out: SERD IC50 MCF7 μM (antagonist activity)) it was 748 nM; at ER (comparison of groups at the X position, read-out: IC50 MCF7 μM (antagonist activity)), 748 nM. Moreover, the “ER Percentage remaining (degradation potential)” value is recorded as 41% at ERα (comparison of bond order between the phenyl and -C(O)OH); 41% at ERα (comparison of groups at the X position). Consider `O=c1nc(/C=C/c2ccc(Oc3c(-c4ccc(O)cc4)sc4cc(O)ccc34)cc2)cc(C(F)(F)F)[nH]1` [Example 50, (E)-4-(4-((6-hydroxy-2-(4-hydroxyphenyl)-benzo[b]thiophen-3-yl)oxy)styryl)-6-(trifluoromethyl)-pyrimidin-2(1H)-one], for which the IC50 at ER (setting [1]) was 154 nM. Still for that read-out and setting: with `Cc1cc(F)ccc1-c1sc2cc(O)ccc2c1Oc1ccc(/C=C/c2nnnn2C)cc1` [Example 51, (E)-2-(4-fluoro-2-methylphenyl)-3-(4-(2-(1-methyl-1H-tetrazol-5-yl)vinyl)phenoxy)-benzo[b]thiophen-6-ol] the figure was 61 nM. Take `Cn1nnnc1/C=C/c1ccc(Oc2c(-c3ccc(F)cc3)sc3cc(O)ccc23)cc1` [Example 52, (E)-2-(4-fluorophenyl)-3-(4-(2-(1-methyl-1H-tetrazol-5-yl)vinyl)phenoxy)benzo [b]thiophen-6-ol]: the IC50 at ER (setting [1]) is 5980 nM.

Regarding `CCCn1nnnc1/C=C/c1ccc(Oc2c(-c3ccc(F)cc3C)sc3cc(O)ccc23)cc1` [Example 53, (E)-2-(4-fluoro-2-methylphenyl)-3-(4-(2-(1-propyl-1H-tetrazol-5-yl)vinyl)phenoxy) benzo[b]thiophen-6-ol], on ER (setting [1]), the IC50 stood at 320 nM.

Consider `Cn1nnnc1/C=C/c1ccc(Oc2c(-c3ccc(O)cc3)sc3cc(O)ccc23)cc1` [Example 54, (E)-2-(4-hydroxyphenyl)-3-(4-(2-(1-methyl-1H-tetrazol-5-yl)vinyl)-phenoxy)benzo[b]thiophen-6-ol], for which the IC50 on ER (setting [1]) was found to be 1 nM.

In the case of `Cn1nnc(/C=C/c2ccc(Oc3c(-c4ccc(O)cc4)sc4cc(O)ccc34)cc2)n1` [Example 55, (E)-2-(4-hydroxyphenyl)-3-(4-(2-(2-methyl-2H-tetrazol-5-yl)vinyl)-phenoxy)benzo[b]-thiophen-6-ol], the IC50 on ER (setting [1]) was found to be 3 nM.

Take `Cc1cc(Oc2c(-c3ccc(O)cc3)sc3cc(O)ccc23)ccc1/C=C/C(=O)O` [Example 56, (E)-3-(4-((6-hydroxy-2-(4-hydroxyphenyl)-benzo[b]thiophen-3-yl)oxy)-2-methylphenyl)-acrylic acid]: the IC50 on ER (setting [1]) came out at 1270 nM. Regarding `Cc1cc(/C=C/C(=O)O)ccc1Oc1c(-c2ccc(O)cc2)sc2cc(O)ccc12` [Example 57, (E)-3-(4-((6-hydroxy-2-(4-hydroxyphenyl)-benzo[b]thiophen-3-yl)oxy)-3-methylphenyl)acrylic acid], the IC50 on ER (setting [1]) is 1030 nM. With `COc1cc(Oc2c(-c3ccc(O)cc3)sc3cc(O)ccc23)ccc1/C=C/C(=O)O` [Example 58, (E)-3-(4-((6-hydroxy-2-(4-hydroxyphenyl)-benzo[b]thiophen-3-yl)oxy)-2-methoxyphenyl)acrylic acid], on ER (setting [1]), the IC50 stood at 5020 nM. On ERα, the “% ERα remaining” value is given as 35%. With `O=C(O)/C=C/c1ccc(Oc2c(-c3ccc(OC(F)(F)F)cc3)sc3cc(O)ccc23)cc1` [Example 59, (E)-3-(4-((6-hydroxy-2-(4-(trifluoromethoxy)-phenyl)benzo[b]thiophen-3-yl)oxy)phenyl)-acrylic acid], the IC50 on ER (setting [1]) worked out at 1250 nM. For `O=C(O)/C=C/c1ccc(Oc2c(-c3ccccc3)sc3cc(O)ccc23)cc1` [Example 60, (E)-3-(4-((6-hydroxy-2-phenylbenzo[b]thiophen-3-yl)oxy)phenyl)-acrylic acid], the IC50 at ER (setting [1]) turned out to be 2310 nM.

As for `Cc1cc(-c2sc3cc(O)ccc3c2Oc2ccc(/C=C/C(=O)O)cc2)ccc1O` [Example 61, (E)-3-(4-((6-hydroxy-2-(4-hydroxy-3-methylphenyl)benzo[b]-thiophen-3-yl)oxy)phenyl)acrylic acid], the IC50 at ER (setting [1]) was found to be 327 nM. The same measure, in the same setting: then `C/C(=C\C(=O)O)c1ccc(Oc2c(-c3ccc(O)cc3)sc3cc(O)ccc23)cc1` [Example 62, (E)-3-(4-((6-hydroxy-2-(4-hydroxyphenyl)-benzo[b]thiophen-3-yl)oxy)phenyl)but-2-enoic acid], with 316 nM. In the case of `CNC(=O)/C=C/c1ccc(Oc2c(-c3ccc(C(F)(F)F)cc3)sc3cc(O)ccc23)cc1` [Example 63, (E)-3-(4-((6-hydroxy-2-(4-(trifluoromethyl)-phenyl)benzo[b]thiophen-3-yl)oxy)phenyl)-N-methylacrylamide], at ER (setting [1]), the IC50 came to 185 nM. On the same count and under the same terms, then `NC(=O)/C=C/c1ccc(Oc2c(-c3ccc(O)cc3)sc3cc(O)ccc23)cc1` [Example 64, (E)-3-(4-((6-hydroxy-2-(4-hydroxyphenyl)-benzo[b]thiophen-3-yl)oxy)phenyl)acrylamide], with 40 nM; and `O=C(/C=C/c1ccc(Oc2c(-c3ccc(O)cc3)sc3cc(O)ccc23)cc1)NCCO` [Example 65, (E)-3-(4-((6-hydroxy-2-(4-hydroxyphenyl)benzo[b]-thiophen-3-yl)oxy)phenyl)-N-(2-hydroxyethyl)acrylamide], with 55 nM. For the compound `CNC(=O)/C=C/c1ccc(Oc2c(-c3ccc(O)cc3)sc3cc(O)ccc23)cc1` [Example 66, (E)-3-(4-((6-hydroxy-2-(4-hydroxyphenyl)benzo-[b]thiophen-3-yl)oxy)phenyl)-N-methylacrylamide], on ER (setting [1]), the IC50 is 53 nM.

For the compound `CNC(=O)/C=C/c1ccc(Oc2c(-c3ccc(F)cc3)sc3cc(O)ccc23)cc1` [Example 67, (E)-3-(4-((2-(4-fluorophenyl)-6-hydroxybenzo[b]thiophen-3-yl)oxy)phenyl)-N-methylacrylamide], the IC50 on ER (setting [1]) was found to be 373 nM. For the compound `CNC(=O)/C=C/c1ccc(Oc2c(-c3ccc(O)c(F)c3)sc3cc(O)ccc23)cc1` [Example 69, (E)-3-(4-((2-(3-fluoro-4-hydroxyphenyl)-6-hydroxybenzo[b]thiophen-3-yl)oxy)phenyl)-N-methylacrylamide], on ER (setting [1]), the IC50 turned out to be 41 nM. Moreover, at ERα, the “% ERα remaining” value worked out at 32%. Take `CNC(=O)/C=C/c1ccc(Oc2c(-c3ccc(C(F)(F)F)cc3)sc3cc(O)ccc23)cc1` [Example 70, (E)-3-(4-((6-hydroxy-2-(4-(trifluoromethyl)phenyl)benzo[b]thiophen-3-yl)oxy)phenyl)-N-methylacrylamide]: the IC50 on ER (setting [1]) was determined as 269 nM. For the same compound, the “% ERα remaining” value at ERα is recorded as 41%. In the same order, the values of `CNC(=O)/C=C/c1ccc(Oc2c(-c3ccc(O)cc3)sc3cc(O)ccc23)cn1` [Example 71, (E)-3-(5-((6-hydroxy-2-(4-hydroxyphenyl)benzo[b]thiophen-3-yl)oxy)pyridin-2-yl)-N-methylacrylamide] are 53 nM and 39%. In the same order, the values of `Oc1ccc(-c2sc3cc(O)ccc3c2Oc2ccc(/C=C/c3c[nH]cn3)cc2)cc1` [Example 72, (E)-3-(4-(2-(1H-imidazol-4-yl)vinyl)phenoxy)-2-(4-hydroxyphenyl)benzo[b]thiophen-6-ol] are 125 nM and 47%. With `CN(C)Cc1ccccc1-c1sc2cc(O)ccc2c1Oc1ccc(/C=C/C(=O)O)cc1` [Example 77, (E)-3-(4-((2-(2-((dimethylamino)methyl)phenyl)-6-hydroxybenzo[b]thiophen-3-yl)oxy)phenyl)acrylic acid], the IC50 on ER (setting [1]) worked out at 40 nM.
